Test results reported in patent US20090227600A1, “4-(PYRAZINE-2-YL) -PYRROLIDINE -2-CARBOXYLIC ACID COMPOUNDS AND DERIVATIVES THEREOF AS HEPATITIS C VIRUS INHIBITORS” (priority 2004, published 2009).

Experiments:
[1] = target: T1, HCV RNA Polymerase, recombinant full-length NS5B, genotype 1b (Hepatitis C virus genotype 1b, UniProt Q9WMX2); experiment: In vitro HCV RNA-dependent RNA polymerase inhibition assay, genotype 1b full-length enzyme; type: biochemical, HCV genotype 1b; settings: genotype 1b full-length NS5B enzyme
T1 construct: Recombinant full-length NS5B; made in house
T1 sequence (Q9WMX2 2420-3010): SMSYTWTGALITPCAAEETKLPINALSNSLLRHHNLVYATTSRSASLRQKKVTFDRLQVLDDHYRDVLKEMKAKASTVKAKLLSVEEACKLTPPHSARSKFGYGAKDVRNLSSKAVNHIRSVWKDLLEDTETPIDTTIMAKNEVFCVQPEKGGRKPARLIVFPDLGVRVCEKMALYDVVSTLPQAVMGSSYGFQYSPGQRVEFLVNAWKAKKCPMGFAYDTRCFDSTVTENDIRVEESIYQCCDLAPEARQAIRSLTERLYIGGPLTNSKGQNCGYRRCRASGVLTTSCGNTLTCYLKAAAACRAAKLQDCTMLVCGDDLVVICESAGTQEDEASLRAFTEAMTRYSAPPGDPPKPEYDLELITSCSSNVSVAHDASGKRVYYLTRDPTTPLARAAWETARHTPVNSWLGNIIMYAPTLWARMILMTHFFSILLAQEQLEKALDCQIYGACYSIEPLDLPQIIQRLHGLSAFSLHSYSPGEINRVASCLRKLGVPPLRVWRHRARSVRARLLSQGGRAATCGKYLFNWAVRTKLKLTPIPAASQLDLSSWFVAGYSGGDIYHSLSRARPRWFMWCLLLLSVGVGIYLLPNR
Procedure: Incorporation of [^33P]-GMP into RNA was followed by absorption of the biotin labelled RNA polymer by streptavidin containing SPA beads. A synthetic template consisting of biotinylated 13mer-oligoG hybridised to polyrC was used as a homopolymer substrate.
b) Genotype 1b Full-Length Enzyme
Reaction Conditions were 0.5 μM [^33P]-GTP (20 Ci/mMol), 1 mM Dithiothreitol, 20 mM MgCl2, 5 mM MnCl2, 20 mM Tris-HCl, pH7.5, 1.6 μg/mL polyC/0.256 μM biotinylated oligoG13, 10% glycerol, 0.01% NP-40, 0.2 u/μL RNasin and 50 mM NaCl.
HCV RNA Polymerase (Recombinant full-length NS5B (Lohmann et al, J. Virol. 71 (11), 1997, 8416. ‘Biochemical properties of hepatitis C virus NS5B RNA-dependent RNA polymerase and identification of amino acid sequence motifs essential for enzymatic activity’) expressed in baculovirus and purified to homogeneity) was added to 4 nM final concentration.
5× concentrated assay buffer mix was prepared using 1M MnCl2 (0.25 mL), glycerol (2.5 mL), 10% NP-40 (0.025 mL) and Water (7.225 mL), Total 10 mL.
2× concentrated enzyme buffer contained 1M-Tris-HCl, pH7.5 (0.4 mL), 5M NaCl (0.2 mL), 1M-MgCl2 (0.4 mL), glycerol (1 mL), 10% NP-40 (10 μL), 1M DTT (20 μL) and water (7.97 mL), Total 10 mL.
Substrate Mix was prepared using 5× Concentrated assay Buffer mix (4 μL), [^33P]-GTP (10 μCi/μL, 0.02 μL), 25 μM GTP (0.4 μL), 40 u/μL RNasin (0.1 μL), 20 μg/mL polyrC/biotinylated-oligoG (1.6 μL), and Water (3.94 μL), Total 10 μL.
Enzyme Mix was prepared by adding 1 mg/ml full-length NS5B polymerase (1.5 μL) to 2.81 mL 2×-concentrated enzyme buffer.
The Assay was set up using compound (1 μL), Substrate Mix (10 μL), and Enzyme Mix (added last to start reaction) (10 μL), Total 21 μL.
The reaction was performed in a U-bottomed, white, 96-well plate. The reaction was mixed on a plate-shaker, after addition of the Enzyme, and incubated for 1 h at 22° C. After this time, the reaction was stopped by addition of 40 μL 1.875 mg/ml streptavidin SPA beads in 0.1 M EDTA. The beads were incubated with the reaction mixture for 1 h at 22° C. after which 120 μL 0.1 M EDTA in PBS was added. The plate was sealed, mixed centrifuged and incorporated radioactivity determined by counting in a Trilux (Wallac) or Topcount (Packard) Scintillation Counter.
After subtraction of background levels without enzyme, any reduction in the amount of radioactivity incorporated in the presence of a compound, compared to that in the absence, was taken as a measure of the level of inhibition. Ten concentrations of compounds were tested in three- or fivefold dilutions. From the counts, percentage of inhibition at highest concentration tested or IC50s for the compounds were calculated using GraFit 3, GraFit 4 or GraFit 5 (Erithacus Software Ltd.) software packages or a data evaluation macro for Excel based on XLFit Software (IDBS).

[2] = test system: Huh-7 HCV replicon cells (sub-line 5-15; genotype 1b); experiment: Replicon ELISA cell based assay, genotype 1b; design: species or system HCV genotype 1b; settings: Hepatitis C virus, Huh-7 genotype 1b replicon (sub-line 5-15), 72 hours
Procedure: 100 μL of medium containing 10% FCS were added to each well of clear, flat-bottomed 96 well microplates, excepting wells in the top row. Test compound was diluted in assay medium to twice the final required starting concentration from a 40 mM stock solution in DMSO. 200 μL of the starting dilution were introduced into two wells each in the top row and doubling dilutions made down the plate by the sequential transfer of 100 μL aliquots with thorough mixing in the wells; the final 100 μL were discarded. The two bottom rows were not used for compound dilutions. Huh-7 HCV replicon cell monolayers nearing confluency were stripped from growth flasks with versene-trypsin solution and the cells were resuspended in assay medium at either 2×10^5 cells/mL (sub-line 5-15; genotype 1b; Lohmann, V., Komer, F., Koch, J-O., Herian, U., Thielmann, L. And Bartenschlager, R., 1999, Science, 285, pp 110-113) or at 3×10^5 cells/mL (genotype 1a; Gu, B., Gates, A. T., Isken, O., Behrens, S. E. and Sarisky, R. T., J. Virol., 2003, 77, 5352-5359). 100 μL of cell suspension were added to all wells and the plates incubated at 37° C. for 72 hours in a 5% CO2 atmosphere.
Following incubation, the assay medium was aspirated from the plates. The cell sheets were washed by gentle immersion in phosphate buffered saline (PBS), which was then aspirated off, and fixed with acetone:methanol (1:1) for 5 minutes. Following a further wash with PBS, 100 μL of ELISA diluent (PBS+0.05% v/v Tween 20+2% w/v skimmed milk powder) were added to all wells and the plates incubated at 37° C. for 30 minutes on an orbital platform. The diluent was removed and each well then received 50 μL of a 1/200 dilution of anti-HCV specific, murine, monoclonal antibody (either Virostat #1872 or #1877), except for wells in one of the compound-free control rows which received diluent alone to act as negative controls. The plates were incubated at 37° C. for 2 hours and washed 3 times with PBS/0.05% Tween 20, then 50 μL of horseradish peroxidase conjugated, anti-mouse, rabbit polyclonal serum (Dako #P0260), diluted 1/1000, were added to all wells. The plates were incubated for a further hour, the antibody removed and the cell sheets washed 5 times with PBS/Tween and blotted dry. The assay was developed by the addition of 50 μL of ortho-phenylenediamine/peroxidase substrate in urea/citrate buffer (SigmaFast, Sigma #P-9187) to each well, and colour allowed to develop for up to 15 minutes. The reaction was stopped by the addition of 25 μL per well of 2 M sulphuric acid and the plates were read at 490 nm on a Fluostar Optima spectrophotometer.
The substrate solution was removed and the plates were washed in tap water, blotted dry and the cells stained with 5% carbol fuchsin in water for 30 minutes. The stain was discarded and the cell sheets washed, dried and examined microscopically to assess cytotoxicity.
The absorbance values from all compound-free wells that had received both primary and secondary antibodies were averaged to obtain a positive control value. The mean absorbance value from the compound-free wells that had not received the primary antibody was used to provide the negative (background) control value. The readings from the duplicate wells at each compound concentration were averaged and, after the subtraction of the mean background from all values, were expressed as a percentage of the positive control signal. The quantifiable and specific reduction of expressed protein detected by the ELISA in the presence of a drug can be used as a measure of replicon inhibition. GraFit software was used to plot the curve of percentage inhibition against compound concentration and derive the 50% inhibitory concentration (IC50) for the compound.

SMILES	IC50 [1] [nM]	IC50 [2] [nM]
COc1cc(C(=O)N2[C@@H](c3nccs3)[C@@H](c3cnccn3)C[C@@]2(CC(C)C)C(=O)O)ccc1C(C)(C)C (racemic) [Compound A, rel-(2S,4S,5R)-2-Isobutyl-1-(4-tert-butyl-3-methoxybenzoyl)-4-(pyrazin-2-yl)-5-(1,3-thiazol-2-yl)pyrrolidine-2-carboxylic acid, reference compound]	100 to 500	100 to 10000
COc1cc(C(=O)N2[C@@H](c3nccs3)[C@@H](c3cnccn3)C[C@@]2(Cc2ccccn2)C(=O)O)ccc1C(C)(C)C (racemic) [Compound C, rel-(2R,4S,5R)-1-(4-tert-Butyl-3-methoxybenzoyl)-2-(pyridin-2-ylmethyl)-4-(pyrazin-2-yl)-5-(1,3-thiazol-2-yl)pyrrolidine-2-carboxylic acid, reference compound]	100 to 500	100 to 10000
COc1cc(C(=O)N2[C@@H](c3nccs3)[C@@H](c3cnccn3)C[C@@]2(Cc2c[nH]cn2)C(=O)O)ccc1C(C)(C)C (racemic) [Compound D, rel-(2R,4S,5R)-1-(4-tert-Butyl-3-methoxybenzoyl)-2-(1H-imidazol-4-yl-methyl)-4-(pyrazin-2-yl)-5-(1,3-thiazol-2-yl)-pyrrolidine-2-carboxylic acid, reference compound]	100 to 500	100 to 10000
COc1cc(C(=O)N2[C@@H](c3cncs3)[C@@H](c3cnccn3)C[C@@]2(CCSC)C(=O)O)ccc1C(C)(C)C (racemic) [Compound E, rel-(2R,4S,5R)-1-(4-tert-Butyl-3-methoxybenzoyl)-2-(2-(methylthio)ethyl)-4-(pyrazin-2-yl)-5-(1,3-thiazol-5-yl)-pyrrolidine-2-carboxylic acid, reference compound]	100 to 500	100 to 10000
COc1cc(C(=O)N2[C@@H](c3nccs3)[C@@H](c3cnccn3)C[C@@]2(CCS(C)(=O)=O)C(=O)O)ccc1C(C)(C)C (racemic) [Compound F, rel-(2R,4S,5R)-1-(4-tert-Butyl-3-methoxybenzoyl)-2-(2-(methylsulphonyl)ethyl)-4-pyrazin-2-yl-5-(1,3-thiazol-2-yl)-pyrrolidine-2-carboxylic acid, reference compound]	> 500	> 10000
COc1cc(C(=O)N2[C@@H](c3nccs3)[C@@H](c3cnccn3)C[C@@]2(Cc2ccccc2)C(=O)O)ccc1C(C)(C)C (racemic) [Compound G, rel-(2R,4S,5R)-1-(4-tert-Butyl-3-methoxybenzoyl)-2-(phenylmethyl)-4-(pyrazin-2-yl)-5-(1,3-thiazol-2-yl)pyrrolidine-2-carboxylic acid, reference compound]	100 to 500	100 to 10000
COc1cc(C(=O)N2[C@@H](c3nccs3)[C@@H](c3cnccn3)C[C@@]2(Cc2cscn2)C(=O)O)ccc1C(C)(C)C (racemic) [Example 1, rel-(2R,4S,5R)-1-(3-Methoxy-4-tert-butylbenzoyl)-4-(pyrazin-2-yl)-2-(1,3-thiazol-4-ylmethyl)-5-(1,3-thiazol-2-yl)pyrrolidine-2-carboxylic acid]	< 100	< 100
COc1cc(C(=O)N2[C@@H](c3nccs3)[C@@H](c3cnccn3)C[C@@]2(Cc2nccs2)C(=O)O)ccc1C(C)(C)C (racemic) [Example 3, rel-(2R,4S,5R)-1-(3-Methoxy-4-tert-butylbenzoyl)-4-(pyrazin-2-yl)-2-(1,3-thiazol-2-ylmethyl)-5-(1,3-thiazol-2-yl)pyrrolidine-2-carboxylic acid]	< 100	< 100
COc1cc(C(=O)N2[C@@H](c3ncc(C)s3)[C@@H](c3cnccn3)C[C@@]2(Cc2ccsn2)C(=O)O)ccc1C(C)(C)C (racemic) [Example 5, rel-(2R,4S,5R)-1-(3-Methoxy-4-tert-butylbenzoyl)-5-(5-methyl-1,3-thiazol-2-yl)-4-(pyrazin-2-yl)-2-(1,2-thiazol-3-ylmethyl)pyrrolidine-2-carboxylic acid]	< 100	< 100
COc1cc(C(=O)N2[C@@H](c3nccs3)[C@@H](c3cnccn3)C[C@@]2(Cc2ccsn2)C(=O)O)ccc1C(C)(C)C (racemic) [Example 7, rel-(2R,4S,5R)-1-(3-Methoxy-4-tert-butylbenzoyl)-4-(pyrazin-2-yl)-2-(1,2-thiazol-3-ylmethyl)-5-(1,3-thiazol-2-yl)pyrrolidine-2-carboxylic acid]	< 100	< 100
COc1cc(C(=O)N2[C@@H](c3ncc(C)s3)[C@@H](c3cnccn3)C[C@@]2(Cn2cccn2)C(=O)O)ccc1C(C)(C)C (racemic) [Example 9, rel-(2R,4S,5R)-1-(3-Methoxy-4-tert-butylbenzoyl)-5-(5-methyl-1,3-thiazol-2-yl)-4-(pyrazin-2-yl)-2-(1H-pyrazol-1-ylmethyl)pyrrolidine-2-carboxylic acid]	< 100	< 100
COc1cc(C(=O)N2[C@@H](c3nccs3)[C@@H](c3cnccn3)C[C@@]2(Cn2cccn2)C(=O)O)ccc1C(C)(C)C (racemic) [Example 11, rel-(2R,4S,5R)-1-(3-Methoxy-4-tert-butylbenzoyl)-4-(pyrazin-2-yl)-2-(1H-pyrazol-1-ylmethyl)-5-(1,3-thiazol-2-yl)pyrrolidine-2-carboxylic acid]	< 100	< 100
